In brackets after ≈: the same amount, converted by molar mass.
How the values were obtained:
Format in all cases: functional
Staphylococcus aureus [1] = assay: Antibacterial activity against methicillin-susceptible Staphylococcus aureus ATCC 29213 by broth microdilution method in presence of 1% pulmonary surfactant; settings: ATCC 29213, Pulmonary surfactant
Staphylococcus aureus [2] = assay: Antibacterial activity against methicillin-susceptible Staphylococcus aureus ATCC 29213 by broth microdilution method in presence of 4% human serum albumin
Staphylococcus aureus [3] = assay: Antibacterial activity against methicillin-susceptible Staphylococcus aureus ATCC 29213 grown on calcium supplemented Mueller-Hinton broth by broth microdilution method
Staphylococcus aureus [4] = assay: Antibacterial activity against methicillin-susceptible Staphylococcus aureus ATCC 29213 by broth microdilution method in presence of 5% pulmonary surfactant; settings: ATCC 29213, Pulmonary surfactant

Row | Compound | MIC (Staphylococcus aureus [1]) | MIC (Staphylococcus aureus [2]) | MIC (Staphylococcus aureus [3]) | MIC (Staphylococcus aureus [4])
1 | CCCCCCCCCC(=O)N[C@@H](Cc1c[nH]c2ccc(F)cc12)C(=O)N[C@@H](CC(N)=O)C(=O)N[C@@H](CC(=O)O)C(=O)N[C@@H]1C(=O)NCC(=O)N[C@@H](CCCN)C(=O)N[C@@H](CC(=O)O)C(=O)N[C@H](C)C(=O)N[C@@H](CC(=O)O)C(=O)NCC(=O)N[C@H](CO)C(=O)N[C@@H]([C@@H](C)CC(=O)O)C(=O)N[C@@H](CC(=O)c2ccccc2N)C(=O)O[C@@H]1C | 16 µg/mL | 1 µg/mL | 0.25 µg/mL (≈ 0.153 µM) | > 32 µg/mL
2 | CCCCCCCCCC(=O)N[C@@H](Cc1c[nH]c2ccc(OC)cc12)C(=O)N[C@@H](CC(N)=O)C(=O)N[C@@H](CC(=O)O)C(=O)N[C@@H]1C(=O)NCC(=O)N[C@@H](CCCN)C(=O)N[C@@H](CC(=O)O)C(=O)N[C@H](C)C(=O)N[C@@H](CC(=O)O)C(=O)NCC(=O)N[C@H](CO)C(=O)N[C@@H]([C@@H](C)CC(=O)O)C(=O)N[C@@H](CC(=O)c2ccccc2N)C(=O)O[C@@H]1C | 16 µg/mL | 8 µg/mL | 4 µg/mL (≈ 2.42 µM) | 32 µg/mL
3 | CCCCCCCCCC(=O)N[C@@H](Cc1csc2ccccc12)C(=O)N[C@@H](CC(N)=O)C(=O)N[C@@H](CC(=O)O)C(=O)N[C@@H]1C(=O)NCC(=O)N[C@@H](CCCN)C(=O)N[C@@H](CC(=O)O)C(=O)N[C@H](C)C(=O)N[C@@H](CC(=O)O)C(=O)NCC(=O)N[C@H](CO)C(=O)N[C@@H]([C@@H](C)CC(=O)O)C(=O)N[C@@H](CC(=O)c2ccccc2N)C(=O)O[C@@H]1C | 8 µg/mL | 4 µg/mL | 2 µg/mL (≈ 1.22 µM) | 16 µg/mL
4 | CCCCCCCCCC(=O)N[C@@H](Cc1ccsc1)C(=O)N[C@@H](CC(N)=O)C(=O)N[C@@H](CC(=O)O)C(=O)N[C@@H]1C(=O)NCC(=O)N[C@@H](CCCN)C(=O)N[C@@H](CC(=O)O)C(=O)N[C@H](C)C(=O)N[C@@H](CC(=O)O)C(=O)NCC(=O)N[C@H](CO)C(=O)N[C@@H]([C@@H](C)CC(=O)O)C(=O)N[C@@H](CC(=O)c2ccccc2N)C(=O)O[C@@H]1C | 8 µg/mL | 32 µg/mL | 4 µg/mL (≈ 2.52 µM) | 16 µg/mL
5 | CCCCCCCCCC(=O)N[C@@H](Cc1ccccc1)C(=O)N[C@@H](CC(N)=O)C(=O)N[C@@H](CC(=O)O)C(=O)N[C@@H]1C(=O)NCC(=O)N[C@@H](CCCN)C(=O)N[C@@H](CC(=O)O)C(=O)N[C@H](C)C(=O)N[C@@H](CC(=O)O)C(=O)NCC(=O)N[C@H](CO)C(=O)N[C@@H]([C@@H](C)CC(=O)O)C(=O)N[C@@H](CC(=O)c2ccccc2N)C(=O)O[C@@H]1C | 4 µg/mL | 4 µg/mL | 2 µg/mL (≈ 1.26 µM) | 8 µg/mL
6 | CCCCCCCCCC(=O)N[C@@H](Cc1ccc(F)cc1)C(=O)N[C@@H](CC(N)=O)C(=O)N[C@@H](CC(=O)O)C(=O)N[C@@H]1C(=O)NCC(=O)N[C@@H](CCCN)C(=O)N[C@@H](CC(=O)O)C(=O)N[C@H](C)C(=O)N[C@@H](CC(=O)O)C(=O)NCC(=O)N[C@H](CO)C(=O)N[C@@H]([C@@H](C)CC(=O)O)C(=O)N[C@@H](CC(=O)c2ccccc2N)C(=O)O[C@@H]1C | 8 µg/mL | 8 µg/mL | 2 µg/mL (≈ 1.25 µM) | 16 µg/mL
7 | CCCCCCCCCC(=O)N[C@@H](Cc1ccc(C(F)(F)F)cc1)C(=O)N[C@@H](CC(N)=O)C(=O)N[C@@H](CC(=O)O)C(=O)N[C@@H]1C(=O)NCC(=O)N[C@@H](CCCN)C(=O)N[C@@H](CC(=O)O)C(=O)N[C@H](C)C(=O)N[C@@H](CC(=O)O)C(=O)NCC(=O)N[C@H](CO)C(=O)N[C@@H]([C@@H](C)CC(=O)O)C(=O)N[C@@H](CC(=O)c2ccccc2N)C(=O)O[C@@H]1C | 32 µg/mL | 8 µg/mL | 2 µg/mL (≈ 1.21 µM) | > 32 µg/mL
8 | CCCCCCCCCC(=O)N[C@@H](Cc1ccc(C)cc1)C(=O)N[C@@H](CC(N)=O)C(=O)N[C@@H](CC(=O)O)C(=O)N[C@@H]1C(=O)NCC(=O)N[C@@H](CCCN)C(=O)N[C@@H](CC(=O)O)C(=O)N[C@H](C)C(=O)N[C@@H](CC(=O)O)C(=O)NCC(=O)N[C@H](CO)C(=O)N[C@@H]([C@@H](C)CC(=O)O)C(=O)N[C@@H](CC(=O)c2ccccc2N)C(=O)O[C@@H]1C | 2 µg/mL | 8 µg/mL | 1 µg/mL (≈ 0.627 µM) | 8 µg/mL
9 | CCCCCCCCCC(=O)N[C@@H](Cc1ccc(OC)cc1)C(=O)N[C@@H](CC(N)=O)C(=O)N[C@@H](CC(=O)O)C(=O)N[C@@H]1C(=O)NCC(=O)N[C@@H](CCCN)C(=O)N[C@@H](CC(=O)O)C(=O)N[C@H](C)C(=O)N[C@@H](CC(=O)O)C(=O)NCC(=O)N[C@H](CO)C(=O)N[C@@H]([C@@H](C)CC(=O)O)C(=O)N[C@@H](CC(=O)c2ccccc2N)C(=O)O[C@@H]1C | 2 µg/mL | 8 µg/mL | 2 µg/mL (≈ 1.24 µM) | 2 µg/mL
10 | CCCCCCCCCC(=O)N[C@@H](Cc1ccc(OCC)cc1)C(=O)N[C@@H](CC(N)=O)C(=O)N[C@@H](CC(=O)O)C(=O)N[C@@H]1C(=O)NCC(=O)N[C@@H](CCCN)C(=O)N[C@@H](CC(=O)O)C(=O)N[C@H](C)C(=O)N[C@@H](CC(=O)O)C(=O)NCC(=O)N[C@H](CO)C(=O)N[C@@H]([C@@H](C)CC(=O)O)C(=O)N[C@@H](CC(=O)c2ccccc2N)C(=O)O[C@@H]1C | 4 µg/mL | 8 µg/mL | 4 µg/mL (≈ 2.46 µM) | 16 µg/mL
11 | CCCCCCCCCC(=O)N[C@@H](Cc1cccc(OC)c1)C(=O)N[C@@H](CC(N)=O)C(=O)N[C@@H](CC(=O)O)C(=O)N[C@@H]1C(=O)NCC(=O)N[C@@H](CCCN)C(=O)N[C@@H](CC(=O)O)C(=O)N[C@H](C)C(=O)N[C@@H](CC(=O)O)C(=O)NCC(=O)N[C@H](CO)C(=O)N[C@@H]([C@@H](C)CC(=O)O)C(=O)N[C@@H](CC(=O)c2ccccc2N)C(=O)O[C@@H]1C | 2 µg/mL | 4 µg/mL | 2 µg/mL (≈ 1.24 µM) | 4 µg/mL
12 | CCCCCCCCCC(=O)N[C@@H](Cc1ccccc1OC)C(=O)N[C@@H](CC(N)=O)C(=O)N[C@@H](CC(=O)O)C(=O)N[C@@H]1C(=O)NCC(=O)N[C@@H](CCCN)C(=O)N[C@@H](CC(=O)O)C(=O)N[C@H](C)C(=O)N[C@@H](CC(=O)O)C(=O)NCC(=O)N[C@H](CO)C(=O)N[C@@H]([C@@H](C)CC(=O)O)C(=O)N[C@@H](CC(=O)c2ccccc2N)C(=O)O[C@@H]1C | 2 µg/mL | 8 µg/mL | 2 µg/mL (≈ 1.24 µM) | 4 µg/mL
13 | CCCCCCCCCC(=O)N[C@@H](Cc1ccc(OC)cc1OC)C(=O)N[C@@H](CC(N)=O)C(=O)N[C@@H](CC(=O)O)C(=O)N[C@@H]1C(=O)NCC(=O)N[C@@H](CCCN)C(=O)N[C@@H](CC(=O)O)C(=O)N[C@H](C)C(=O)N[C@@H](CC(=O)O)C(=O)NCC(=O)N[C@H](CO)C(=O)N[C@@H]([C@@H](C)CC(=O)O)C(=O)N[C@@H](CC(=O)c2ccccc2N)C(=O)O[C@@H]1C | 8 µg/mL | 16 µg/mL | 8 µg/mL (≈ 4.87 µM) | 8 µg/mL
14 | CCCCCCCCCC(=O)N[C@@H](Cc1ccc(OC)c(OC)c1)C(=O)N[C@@H](CC(N)=O)C(=O)N[C@@H](CC(=O)O)C(=O)N[C@@H]1C(=O)NCC(=O)N[C@@H](CCCN)C(=O)N[C@@H](CC(=O)O)C(=O)N[C@H](C)C(=O)N[C@@H](CC(=O)O)C(=O)NCC(=O)N[C@H](CO)C(=O)N[C@@H]([C@@H](C)CC(=O)O)C(=O)N[C@@H](CC(=O)c2ccccc2N)C(=O)O[C@@H]1C | 16 µg/mL | 32 µg/mL | 16 µg/mL (≈ 9.75 µM) | 16 µg/mL
15 | CCCCCCCCCC(=O)N[C@@H](Cc1ccc(O)cc1)C(=O)N[C@@H](CC(N)=O)C(=O)N[C@@H](CC(=O)O)C(=O)N[C@@H]1C(=O)NCC(=O)N[C@@H](CCCN)C(=O)N[C@@H](CC(=O)O)C(=O)N[C@H](C)C(=O)N[C@@H](CC(=O)O)C(=O)NCC(=O)N[C@H](CO)C(=O)N[C@@H]([C@@H](C)CC(=O)O)C(=O)N[C@@H](CC(=O)c2ccccc2N)C(=O)O[C@@H]1C | > 32 µg/mL | > 32 µg/mL | > 32 µg/mL | > 32 µg/mL
16 | CCCCCCCCCC(=O)N[C@@H](Cc1ccc(C(=O)O)cc1)C(=O)N[C@@H](CC(N)=O)C(=O)N[C@@H](CC(=O)O)C(=O)N[C@@H]1C(=O)NCC(=O)N[C@@H](CCCN)C(=O)N[C@@H](CC(=O)O)C(=O)N[C@H](C)C(=O)N[C@@H](CC(=O)O)C(=O)NCC(=O)N[C@H](CO)C(=O)N[C@@H]([C@@H](C)CC(=O)O)C(=O)N[C@@H](CC(=O)c2ccccc2N)C(=O)O[C@@H]1C | > 32 µg/mL | > 32 µg/mL | > 32 µg/mL | > 32 µg/mL
17 | CCCCCCCCCC(=O)N[C@@H](Cc1ccc(N)cc1)C(=O)N[C@@H](CC(N)=O)C(=O)N[C@@H](CC(=O)O)C(=O)N[C@@H]1C(=O)NCC(=O)N[C@@H](CCCN)C(=O)N[C@@H](CC(=O)O)C(=O)N[C@H](C)C(=O)N[C@@H](CC(=O)O)C(=O)NCC(=O)N[C@H](CO)C(=O)N[C@@H]([C@@H](C)CC(=O)O)C(=O)N[C@@H](CC(=O)c2ccccc2N)C(=O)O[C@@H]1C | 16 µg/mL | 32 µg/mL | 16 µg/mL (≈ 10 µM) | 32 µg/mL
18 | CCCCCCCCCC(=O)N[C@@H](Cc1ccc(N(C)C)cc1)C(=O)N[C@@H](CC(N)=O)C(=O)N[C@@H](CC(=O)O)C(=O)N[C@@H]1C(=O)NCC(=O)N[C@@H](CCCN)C(=O)N[C@@H](CC(=O)O)C(=O)N[C@H](C)C(=O)N[C@@H](CC(=O)O)C(=O)NCC(=O)N[C@H](CO)C(=O)N[C@@H]([C@@H](C)CC(=O)O)C(=O)N[C@@H](CC(=O)c2ccccc2N)C(=O)O[C@@H]1C | 2 µg/mL | 4 µg/mL | 2 µg/mL (≈ 1.23 µM) | 2 µg/mL
19 | CCCCCCCCCC(=O)N[C@@H](Cc1ccc(N2CCCC2)cc1)C(=O)N[C@@H](CC(N)=O)C(=O)N[C@@H](CC(=O)O)C(=O)N[C@@H]1C(=O)NCC(=O)N[C@@H](CCCN)C(=O)N[C@@H](CC(=O)O)C(=O)N[C@H](C)C(=O)N[C@@H](CC(=O)O)C(=O)NCC(=O)N[C@H](CO)C(=O)N[C@@H]([C@@H](C)CC(=O)O)C(=O)N[C@@H](CC(=O)c2ccccc2N)C(=O)O[C@@H]1C | 4 µg/mL | 32 µg/mL | 1 µg/mL (≈ 0.606 µM) | 4 µg/mL
20 | CCCCCCCCCC(=O)N[C@@H](CCc1ccccc1)C(=O)N[C@@H](CC(N)=O)C(=O)N[C@@H](CC(=O)O)C(=O)N[C@@H]1C(=O)NCC(=O)N[C@@H](CCCN)C(=O)N[C@@H](CC(=O)O)C(=O)N[C@H](C)C(=O)N[C@@H](CC(=O)O)C(=O)NCC(=O)N[C@H](CO)C(=O)N[C@@H]([C@@H](C)CC(=O)O)C(=O)N[C@@H](CC(=O)c2ccccc2N)C(=O)O[C@@H]1C | 8 µg/mL | 4 µg/mL | 1 µg/mL (≈ 0.627 µM) | 32 µg/mL

From ChEMBL document CHEMBL2086297, “Reduced pulmonary surfactant interaction of daptomycin analogs via tryptophan replacement with alternative amino acids” (2012)
